The series in a line: Pharmacokinetics of Compound A and Regorafenib in rats. The note with it: compared to Regorafenib. It is filed as in vivo.

Results on one compound are retold here after US20120077851A1, “Urea Derivatives as Kinase Inhibitors” (MEDOLUTION LIMITED, priority 2009, published 2012).

As for `[2H]C([2H])([2H])NC(=O)c1cc(Oc2ccc(NC(=O)Nc3ccc(Cl)c(C(F)(F)F)c3)c(F)c2)ccn1` [Compound A, 4-(4-(3-(4-chloro-3-(trifluoromethyl)phenyl)ureido)-3-fluorophenoxy)-N-d3-methylpicolinamide], the T1/2 result is on record as “prolonged T1/2” and the clearance result is reported as “significant slower clearance”. The pharmacokinetic profile entry (FIG. 1, rats) is “better pharmacokinetic profile”. Besides, the exposure entry (oral administration route at equal dose) is “improved exposure”.
